Assay results: patent publication US20220024921A1, “1,3,4-OXADIAZOLONE COMPOUND AND PHARMACEUTICAL” (NIPPON SHINYAKU CO., LTD., priority 2018, published 2022)
Where a name gives a salt, the structure may show the parent alone.

How the values were obtained:
[1] = target: T1, PIM1 serine/threonine kinase (Homo sapiens, UniProt P11309); assay: PIM1 serine/threonine kinase inhibitory effect; type: biochemical; details: PIM1 serine/threonine kinase activity; ATP 40 μM; 30° C., 30 minutes
T1 construct: purchased Carna Bioscience, Inc
T1 sequence (P11309 whole entry): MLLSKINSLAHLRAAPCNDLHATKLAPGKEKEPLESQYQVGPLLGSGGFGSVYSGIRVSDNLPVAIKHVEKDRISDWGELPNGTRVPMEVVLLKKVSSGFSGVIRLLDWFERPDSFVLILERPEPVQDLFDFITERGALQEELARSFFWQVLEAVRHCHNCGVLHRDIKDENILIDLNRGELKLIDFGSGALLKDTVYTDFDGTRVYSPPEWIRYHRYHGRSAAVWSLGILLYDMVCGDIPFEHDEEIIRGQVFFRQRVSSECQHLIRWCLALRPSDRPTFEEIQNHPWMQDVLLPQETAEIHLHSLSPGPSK
Outline: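 Compounds were tested in duplicate from 0.01 to 10000 nM final against PIM1 kinase (0.15 μg/ml). The reaction ran for 30 minutes at 30° C with 40 μM ATP and 0.5 μM biotin-tagged substrate at pH 7.0. Phosphorylation was read by time-resolved FRET (OD665/OD620) after 1 h; IC50 by non-linear fit.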

[2] = target: PIM1 transgenic cells (Ba/F3) (Homo sapiens, UniProt P11309); assay: Proliferation inhibitory effect on PIM1 transgenic cells; type: cell-based, mouse; details: proliferation inhibition, 72 hours, Cell Counting Kit-8, read-out: PIM1 IC50
Chain of PIM1 transgenic cells (Ba/F3) (P11309 whole entry, stated change not applied): as the sequence (P11309 whole entry) above
Outline: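 Mouse Ba/F3 pro-B cells were retrovirally transduced with human PIM1 so that their proliferation depends on PIM1. Cells were treated with compound at 1–10000 nM final for 72 h, then read by CCK-8 (OD450−OD650). Inhibition was set against DMSO (0%) and no-cell blank (100%), and IC50 was obtained by two-parameter logistic regression.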

SMILES	IC50 [1]	GI50 [2]
C[C@@H](C1CCNCC1)N1CCOc2c(F)cc(-c3n[nH]c(=O)o3)cc21 [Example 248, 5-{8-fluoro-4-[(1S)-1-(piperidin-4-yl)ethyl]-3,4-dihydro-2H-1,4-benzoxazin-6-yl}-1,3,4-oxadiazol-2(3H)-one]	10 nM	250 nM
C[C@H](Nc1cc(-c2n[nH]c(=O)o2)ccc1C(F)(F)F)[C@H]1C[C@@H](N)C1(C)C [Example 153, 5-[3-({(1S)-1-[(1S,3R)-3-amino-2,2-dimethylcyclobutyl]ethyl}amino)-4-(trifluoromethyl)phenyl]-1,3,4-oxadiazol-2(3H)-one hydrochloride]	3.1 nM	40 nM
O=c1[nH]nc(-c2ccc(C(F)(F)F)c(NC[C@@H]3C[C@H]4CC[C@@H](C3)N4)c2)o1 [Example 135, 5-[3-({[(1R,3s,5S)-8-azabicyclo[3.2.1]octan-3-yl]methyl}amino)-4-(trifluoromethyl)phenyl]-1,3,4-oxadiazol-2(3H)-one hydrochloride]	29 nM	3500 nM
O=c1[nH]nc(-c2ccc(Cl)c(OC[C@H]3C[C@@H](N4CCNCC4)C3)c2)o1 [Example 242, 5-(4-chloro-3-{[(1s,3s)-3-(piperazin-1-yl)cyclobutyl]methoxy}phenyl)-1,3,4-oxadiazol-2(3H)-one]	10 nM	2600 nM
CN[C@H]1CC[C@H]([C@H](C)Nc2cc(-c3n[nH]c(=O)o3)cc(F)c2C(F)(F)F)CC1 [Example 190, 5-[3-fluoro-5-({(1S)-1-[(1r,4S)-4-(methylamino)cyclohexyl]ethyl}amino)-4-(trifluoromethyl)phenyl]-1,3,4-oxadiazol-2(3H)-one hydrochloride]	1.9 nM	41 nM
C[C@H](Nc1cc(-c2n[nH]c(=O)o2)cc(F)c1C(F)(F)F)[C@H]1C[C@@H](N)C1(C)C [Example 164, 5-[3-({(1S)-1-[(1S,3R)-3-amino-2,2-dimethylcyclobutyl]ethyl}amino)-5-fluoro-4-(trifluoromethyl)phenyl]-1,3,4-oxadiazol-2(3H)-one hydrochloride]	1.7 nM	25 nM

The remaining molecules from weak to strong by IC50 [1], led by results:

IC50 [1]	GI50 [2]	SMILES
26 nM	610 nM	Cc1ccc(-c2n[nH]c(=O)o2)cc1NC[C@H]1CC[C@H](N)CC1 [Example 67, 5-[3-({[(1r,4r)-4-aminocyclohexyl]methyl}amino)-4-methylphenyl]-1,3,4-oxadiazol-2(3H)-one hydrochloride]
9.6 nM	88 nM	CC1(C)[C@@H](CNc2cc(-c3n[nH]c(=O)o3)ccc2C(F)(F)F)C[C@H]1N [Example 176, 5-[3-({[(1S,3R)-3-amino-2,2-dimethylcyclobutyl]methyl}amino)-4-(trifluoromethyl)phenyl]-1,3,4-oxadiazol-2(3H)-one]
7.2 nM	46 nM	C[C@@H]1CNCC[C@@H]1[C@H](C)Nc1cc(-c2n[nH]c(=O)o2)ccc1Cl [Example 221, 5-[4-chloro-3-({(1S)-1-[(3S,4S)-3-methylpiperidin-4-yl]ethyl}amino)phenyl]-1,3,4-oxadiazol-2(3H)-one]
6.2 nM	380 nM	C[C@H](Nc1cc(-c2n[nH]c(=O)o2)c(Cl)cc1Cl)C1CCNCC1 [Example 96, 5-(2,4-dichloro-5-{[(1S)-1-(piperidin-4-yl)ethyl]amino}phenyl)-1,3,4-oxadiazol-2(3H)-one hydrochloride]
4.2 nM	110 nM	C[C@@H]([C@H]1CC[C@H](N)CC1)N1CCOc2c(F)cc(-c3n[nH]c(=O)o3)cc21 [Example 249, 5-(4-{(1S)-1-[(1r,4S)-4-aminocyclohexyl]ethyl}-8-fluoro-3,4-dihydro-2H-1,4-benzoxazin-6-yl)-1,3,4-oxadiazol-2(3H)-one]
2 nM	9.2 nM	C[C@H](Nc1cc(-c2n[nH]c(=O)o2)cc(F)c1C(F)(F)F)[C@@H]1C[C@H](N)C1(C)C [Example 150, 5-[3-({(1S)-1-[(1R,3S)-3-amino-2,2-dimethylcyclobutyl]ethyl}amino)-5-fluoro-4-(trifluoromethyl)phenyl]-1,3,4-oxadiazol-2(3H)-one hydrochloride]
